Patent US10316017B2, “COT modulators and methods of use thereof” (Gilead Sciences, Inc., priority 2015, dated 2019)

Columns and labels:
[1] = test system: TNFα production in LPS-stimulated human monocytes; experiment: Cot Monocyte TNFα Cell Based Assay; settings: Homo sapiens, Monocyte, LPS-stimulated human monocytes, TNFα TR-FRET; read-out: EC50 TNF
In short: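 TR-FRET read-out of total secreted TNFα, normalized as % control (unstimulated = 0%, LPS-stimulated = 100%). Cells (5,000/well) were exposed to compound 1 h at 37 °C, then to 50 pg/ml LPS for a further 4 h.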

[2] = target: T1, human Cot catalytic domain (30-397 amino acids) (Homo sapiens, UniProt P41279); experiment: High Throughput Cot Biochemical Assay (KinEASE TR-FRET); settings: Cot KinEASE TR-FRET, 400 μM ATP; read-out: IC50 HTRF
T1 construct: Purified recombinant human Cot catalytic domain (30-397 amino acids) was purchased from Cama Biosciences; purchased Cama Biosciences (so in the source)
T1 sequence (P41279 30-397): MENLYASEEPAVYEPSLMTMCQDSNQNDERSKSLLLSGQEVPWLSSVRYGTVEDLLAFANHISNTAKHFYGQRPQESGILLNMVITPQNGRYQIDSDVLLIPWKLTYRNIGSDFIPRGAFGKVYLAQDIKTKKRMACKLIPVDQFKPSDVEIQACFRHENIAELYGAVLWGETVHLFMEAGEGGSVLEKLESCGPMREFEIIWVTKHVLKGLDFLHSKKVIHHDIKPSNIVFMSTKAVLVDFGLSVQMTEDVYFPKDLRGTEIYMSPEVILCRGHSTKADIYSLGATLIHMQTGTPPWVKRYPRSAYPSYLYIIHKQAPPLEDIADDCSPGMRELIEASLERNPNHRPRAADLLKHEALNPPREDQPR
In short: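 TR-FRET readout: Eu-labeled phospho-specific antibody binds XL665-tagged STK3 peptide after phosphorylation by Cot (aa 30-397, 5 nM). Conditions: 400 μM ATP, 1 μM peptide, MOPS pH 7.0 buffer with MgOAc, DTT, BSA, NP-40, glycerol; 0.1% DMSO.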

Row | SMILES | EC50 [1] | IC50 [2]
1 | CC[C@@H](Nc1c(C#N)cnc2c(Cl)cc(N[C@H](c3cn(C(F)(F)C(N)=O)nn3)c3ccccc3Cl)cc12)c1ccccc1 [Example 972, 2-(4-((S)-((8-chloro-3-cyano-4-(((R)-1-phenylpropyl)amino)quinolin-6-yl)amino) (2-chlorophenyl)methyl)-1H-1,2,3-triazol-1-yl)-2,2-difluoroacetamide] | 636 nM | 27 nM
2 | CC(C)(C)CNc1c(C#N)cnc2c(C#N)cc(N[C@@H](c3ccccc3)c3cn(C4(C(N)=O)CC4)nn3)cc12 [Example 975, (S)-1-(4-(((3,8-dicyano-4-(neopentylamino)quinolin-6-yl)amino)(phenyl)methyl)-1H-1,2,3-triazol-1-yl)cyclopropane-1-carboxamide] | 321 nM | 3 nM
3 | CC(C)(C)CNc1c(C#N)cnc2c(C#N)cc(N[C@@H](c3ccc(F)cc3)c3cn(C4(C(N)=O)CC4)nn3)cc12 [Example 977, (S)-1-(4-(((3,8-dicyano-4-(neopentylamino)quinolin-6-yl)amino)(4-fluorophenyl)methyl)-1H-1,2,3-triazol-1-yl)cyclopropane-1-carboxamide] | 285 nM | 6 nM
4 | [2H][C@](Nc1cc(Cl)c2ncc(C#N)c(NCC(C)(C)C)c2c1)(c1ccc(Cl)cc1)c1cn(C2CCN(C3CC3)CC2)nn1 [Example 982, (S)-8-chloro-6-(((4-chlorophenyl)(1-(1-cyclopropylpiperidin-4-yl)-1H-1,2,3-triazol-4-yl)methyl-d)amino)-4-(neopentylarnino) quinoline-3-carbonitrile] | 540 nM | 23 nM
5 | CC(C)(C)CNc1c(C#N)cnc2c(C#N)cc(N[C@@H](c3ccc(F)cc3)c3cn(C4(C(N)=O)CCC4)nn3)cc12 [Example 985, (S)-1-(4-(((3,8-dicyano-4-(neopentylamino)quinolin-6-yl)amino)(4-fluorophenyl)methyl)-1H-1,2,3-triazol-1-yl)cyclobutane-1-carboxamide] | 119 nM | 4 nM
6 | N#Cc1cnc2c(Cl)cc(N[C@@H](c3ccccc3)c3cn(C4CC4)nn3)cc2c1N[C@@H](c1ccccc1)C(F)(F)CO [Example 986, 8-chloro-6-(((S)-(1-cyclopropyl-1H-1,2,3-triazol-4-yl)(phenyl)methyl)amino)-4-(((S)-2,2-difluoro-3-hydroxy-1-phenylpropyl)amino)quinoline-3-carbonitrile] | 222 nM | 13 nM
7 | [2H][C@](Nc1cc(Br)c2ncc(C#N)c(NCC(C)(C)C)c2c1)(c1ccc(F)cc1)c1cn(CC(O)CNC(C)(C)C)nn1 (stereo partly drawn) [Example 988, 8-bromo-6-(((1S)-(1-(3-(tert-butylamino)-2-hydroxypropyl)-1H-1,2,3-triazol-4-yl)(4-fluorophenyl)methyl-d)amino)-4-(neopentylamino)quinoline-3-carbonitrile] | 334 nM | 14 nM
8 | CC(C)(C)CNc1c(C#N)cnc2c(Cl)cc(N[C@@H](c3ccc(F)cc3)c3cn(C4(C#N)CC4)nn3)cc12 [Example 989, (S)-8-chloro-6-(((1-(1-cyanocyclopropyl)-1H-1,2,3-triazol-4-yl)(4-fluorophenyl)methyl)amino)-4-(neopentylamino)quinoline-3-carbonitrile] | 111 nM | 12 nM
9 | CC(C)(C)CNc1c(C#N)cnc2c(Cl)cc(N[C@@H](c3ccc(F)cc3)c3cn(C4(C)CC4)nn3)cc12 [Example 990, (S)-8-chloro-6-(((4-fluorophenyl)(1-(1-methylcyclopropyl)-1H-1,2,3-triazol-4-yl)methyl)amino)-4-(neopentylamino)quinoline-3-carbonitrile] | 76 nM | 12 nM
10 | CC(C)(C)CNc1c(C#N)cnc2c(Cl)cc(N[C@@H](c3ccc(F)cc3)c3cn(C4(c5ccccn5)CC4)nn3)cc12 [Example 991, (S)-8-chloro-6-(((4-fluorophenyl)(1-(1-(pyridin-2-yl)cyclopropyl)-1H-1,2,3-triazol-4-yl)methyl)amino)-4-(neopentylamino)quinoline-3-carbonitrile] | 136 nM | 34 nM

Second part, the compound after the results:

Row | EC50 [1] | IC50 [2] | SMILES
11 | 67 nM | 9 nM | CC(C)(C)CNc1c(C#N)cnc2c(C#N)cc(N[C@@H](c3ccc(F)cc3)c3cn(C4(C5CC5)CC4)nn3)cc12 [Example 973, (S)-6-(((1-([1,1'-bi (cyclopropan)]-1-yl)-1H-1,2,3-triazol-4-yl)(4-fluorophenyl)methyl)amino)-4-(neopentylamino) quinoline-3,8-dicarbonitrile]
12 | 46 nM | 46 nM | CC(C)(C)CNc1c(C#N)cnc2c(C#N)cc(N[C@@H](c3ccc(F)cc3)c3cn(C4(c5cccnc5)CC4)nn3)cc12 [Example 974, (S)-6-(((4-fluorophenyl)(1-(1-(pyridin-3-yl)cyclopropyl)-1H-1,2,3-triazol-4-yl)methyl)amino)-4-(neopentylamino) quinoline-3,8-dicarbonitrile]
13 | 58 nM | 6 nM | CC(C)(C)CNc1c(C#N)cnc2c(C#N)cc(N[C@@H](c3ccc(F)cc3)c3cn(C4(C#N)CC4)nn3)cc12 [Example 976, (S)-6-(((1-(1-cyanocyclopropyl)-1H-1,2,3-triazol-4-yl)(4-fluorophenyl)methyl)amino)-4-(neopentylamino)quinoline-3,8-dicarbonitrile]
14 | 65 nM | 5 nM | CC(C)(C)CNc1c(C#N)cnc2c(C#N)cc(N[C@@H](c3ccc(F)cc3)c3cn(C4(C)CC4)nn3)cc12 [Example 978, (S)-6-(((4-fluorophenyl)(1-(1-methylcyclopropyl)-1H-1,2,3-triazol-4-yl)methyl)amino)-4-(neopentylamino)quinoline-3,8-dicarbonitrile]
15 | 103 nM | 4 nM | CC(C)(C)CNc1c(C#N)cnc2c(C#N)cc(N[C@@H](c3ccc(F)cc3)c3cn(C4(CO)CC4)nn3)cc12 [Example 979, (S)-6-(((4-fluorophenyl)(1-(1-(hydroxymethyl)cyclopropyl)-1H-1,2,3-triazol-4-yl)methyl)amino)-4-(neopentylamino)quinoline-3,8-dicarbonitrile]
16 | 39 nM | 11 nM | CC(C)(C)CNc1c(C#N)cnc2c(C#N)cc(N[C@@H](c3ccc(F)cc3)c3cn(C4(c5ccncc5)CC4)nn3)cc12 [Example 983, (S)-6-(((4-fluorophenyl)(1-(1-(pyridin-4-yl)cyclopropyl)-1H-1,2,3-triazol-4-yl)methyl)amino)-4-(neopentylamino) quinoline-3,8-dicarbonitrile]
17 | 93 nM | 125 nM | CC(C)(C)CNc1c(C#N)cnc2c(C#N)cc(N[C@@H](c3ccc(F)cc3)c3cn(C4(c5cnccn5)CC4)nn3)cc12 [Example 984, (S)-6-(((4-fluorophenyl)(1-(1-(pyrazin-2-yl)cyclopropyl)-1H-1,2,3-triazol-4-yl)methyl)amino)-4-(neopentylamino)quinoline-3,8-dicarbonitrile]
18 | 69 nM | 32 nM | CC(C)(C)CNc1c(C#N)cnc2c(C#N)cc(N[C@@H](c3ccc(F)cc3)c3cn(C4(c5cccnn5)CC4)nn3)cc12 [Example 987, (S)-6-(((4-fluorophenyl)(1-(1-(pyridazin-3-yl)cyclopropyl)-1H-1,2,3-triazol-4-yl)methyl)amino)-4-(neopentylamino)quinoline-3,8-dicarbonitrile]
